This is an account of results in US8039444B2, “Antisense permeation enhancers” (Isis Pharmaceuticals, Inc., priority 2001, dated 2011).

For this series the following is noted: monkey, not told, po.

As for “GCTGATTAGAGAGAGGTCCC (GCTGATTAGAGAGAGGTCCC; chemistry not given here) [antisense oligonucleotide]”, the permeability result is reported as “poor permeability”.
